Measured values reported in patent US10766940B2, “Brain penetrant amylin receptor based peptides for Alzheimer's disease” (The Governors of the University of Alberta, priority 2016, dated 2020).
Blank lines part the entries; values can stand above or below the compound they belong to. Positions of bridges follow the written chain, without caps; N, C: chain ends. Non-standard residues stand in square brackets, D forms with d. Residues, ends and D or L forms follow the SMILES beside them. No end group written: not given here. Cy5.5 = near-infrared dye, attached as Cy5.5-NHS ester; βAla = NCCC(=O)O

Assays:
[1] = In vivo pharmacokinetics and bio-distribution of cAC253
Protocol: There were 3 mice in each dose group. After 2 hours the mice were sacrificed to collect their brains which were imaged in a Kodak imager. […] The heart, liver, lung, spleen, intestine, stomach, kidney and brain were excised after perfusion with PBS, and kept in dry ice before Kodak imaging. Fluorescence was quantified, and analyzed as previously.

[2] = In vivo and ex vivo NIRF brain imaging after ip injection, wild-type mice; settings: for ability to penetrate the blood brain barrier: single ip administration, wild-type mice, NIR fluorescence
Protocol: For in vivo imaging experiments, 6-12 month-old TgCRND8, age-matched wild-type littermate, and heterozygous CTR knockdown mice (50% CTR expression level compared to wild type control mice and presumably with 50% AMY receptor expression level) were used (n=5 in each group). The animals were anesthetized with ketamine ip injection. The fur was shaved from the head and dorsal side of the body to avoid laser scattering caused by hair. […] Wild type mice injected with 200 μl saline were used as a background.
Images were acquired with a Kodak IS2000MM Image station (GE Healthcare Systems/ART Inc.), excitation filter 625/20 band pass, emission filter 700 W band pass, light source was 150 W quartz halogen lamp set to 100 (max). Images were captured with a CCD camera set to F stop=0, FOV=150, FP=0. Exposure time was 2 min per image for NIRF image and 1 s for visible image. To evaluate for fluorescence concentration, the region of interest was drawn around the brain region and analyzed using the Kodak ID 3.6 software and the mean fluorescence intensity was recorded.

[3] = after ip injection, 2 h, brain homogenate fluorescence vs standard
[4] = Peptide stability in human serum; type: in vitro ADME; settings: 37° C.
Protocol: For the serum stability experiments, human serum or liver homogenate (250 μL) were added to DMEM medium (650 μL) in a 1.5 mL Eppendorf tube to mimic a biological system. The temperature was equilibrated at 37±1° C. for 30 minutes before adding 100 μL of the peptide stock solution (1 mM solution in 10% DMSO in sterile water). An aliquot of reaction solution (100 μL) was removed from the sample at different time points 0, 3, 5, 10, 20, and 30 minutes added to pure methanol (300 μL) for precipitation of the serum proteins present in the human serum proteins by centrifugation (10,000 rpm, 5 minutes). The clear supernatant was analyzed by reversed phase HPLC, and the appropriate fractions were collected for identification using MALDI-TOF. Proteolysis kinetics of the peptides was analyzed by following the decrease in the concentration of the intact peptide as a function of time. The t1/2 half-lives of peptides were calculated.

[5] = In vivo competition with unlabeled cAC253, ex vivo brain fluorescence; parameters: species or system mouse; settings: 40 μg Cy5.5 cAC253 + 5-fold excess (200 μg) unlabeled cAC253 ip, 2 hr
Protocol: Additionally, a competition in vivo experiment was also carried out. […] Brains were then extracted and scanned ex-vivo for fluorescence concentration. For ex vivo histological study, brains were excised and embedded in OCT, then sliced into 20-μm slices, co-stained with DAPI in mounting medium.

[6] = Lipophilicity, shake flask 1-octanol/water partition; type: physicochemical
Protocol: Peptides hydrophobicity was determined using the shake flask method and 1-octanol/water partition coefficient (log Po/w) was determined. […] Peptide concentration (area) in both phases (1-octanol and water) were analyzed by RP-HPLC. The final log Po/w value was calculated by dividing the concentration (C) of the peptide in the two phases as presented by the area under the peak (partition coefficients=C1-octanol/Cwater).

AMY1 = target: T1, AMY1 (Homo sapiens, UniProt O60894+P30988); experiment: Peptide array-cell binding assay, AMY1 transfected cells; settings: membrane screening AMY1-3 subtypes
T1 construct: expressed in transfected cells
T1 sequence (P30988 25-474): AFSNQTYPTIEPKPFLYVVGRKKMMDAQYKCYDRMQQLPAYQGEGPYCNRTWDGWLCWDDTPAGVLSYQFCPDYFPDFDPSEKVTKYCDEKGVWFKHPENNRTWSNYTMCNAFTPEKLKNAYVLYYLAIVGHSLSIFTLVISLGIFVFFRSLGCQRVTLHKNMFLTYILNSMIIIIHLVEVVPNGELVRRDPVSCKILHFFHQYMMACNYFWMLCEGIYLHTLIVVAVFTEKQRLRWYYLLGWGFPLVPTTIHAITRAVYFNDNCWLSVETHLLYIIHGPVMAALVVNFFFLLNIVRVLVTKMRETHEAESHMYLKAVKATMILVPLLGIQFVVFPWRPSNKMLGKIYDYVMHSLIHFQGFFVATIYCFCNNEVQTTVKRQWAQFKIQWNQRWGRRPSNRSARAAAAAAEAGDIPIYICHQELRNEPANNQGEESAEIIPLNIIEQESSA
T1 sequence (O60894 27-148 partner): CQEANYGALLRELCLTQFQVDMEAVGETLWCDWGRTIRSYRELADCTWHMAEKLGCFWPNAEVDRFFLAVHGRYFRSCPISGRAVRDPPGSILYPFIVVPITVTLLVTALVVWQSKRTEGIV

Compound: Cy5-cAC253: cAC253 with extra β-alanine spacer, N-terminally labeled with near-infrared dye Cy5.5-NHS ester ({Cy5.5-βAla}-[dC]LGRLSQELHRLQTYPRTNTGSNTY[dC]-NH2; disulfide 1-26)
- half-life of brain fluorescence signal ([1]; mouse, in vivo, ip, 20 mg/kg): 16 h

Compound: C[N+]1=C(C=CC=CC=C2N(CCCCCC(=O)ON3C(=O)CCC3=O)c3ccc4ccccc4c3C2(C)C)C(C)(C)c2c1ccc1ccccc21.[Cl-] [Cy5 dye, Cyanine5.5 NHS ester dye, reference compound]
- ability to penetrate the blood brain barrier [2]: could not on its own cross the BBB

Compound: CC(C)C[C@@H]1NC(=O)[C@H](N)CSSC[C@H](C(N)=O)NC(=O)[C@H](Cc2ccc(O)cc2)NC(=O)[C@H]([C@@H](C)O)NC(=O)[C@H](CC(N)=O)NC(=O)[C@H](CO)NC(=O)CNC(=O)[C@H]([C@@H](C)O)NC(=O)[C@H](CC(N)=O)NC(=O)[C@H]([C@@H](C)O)NC(=O)[C@H](CCCNC(=N)N)NC(=O)[C@@H]2CCCN2C(=O)[C@H](Cc2ccc(O)cc2)NC(=O)[C@H]([C@@H](C)O)NC(=O)[C@H](CCC(N)=O)NC(=O)[C@H](CC(C)C)NC(=O)[C@H](CCCNC(=N)N)NC(=O)[C@H](Cc2c[nH]cn2)NC(=O)[C@H](CC(C)C)NC(=O)[C@H](CCC(=O)O)NC(=O)[C@H](CCC(N)=O)NC(=O)[C@H](CO)NC(=O)[C@H](CC(C)C)NC(=O)[C@H](CCCNC(=N)N)NC(=O)CNC1=O [cAC253] (H-[dC]LGRLSQELHRLQTYPRTNTGSNTY[dC]-NH2; disulfide 1-26; N-terminus assumed)
- brain concentration [3]: 10 to 100 nM
- stability in human serum relative to AC253 [4]: seven-fold increase
- stability in human serum relative to AC253 ([4]; listed as Cyclic-AC253): 7 times
- half-life ([4]; human, serum, RP-HPLC of intact peptide): 7 h
- reduction of brain fluorescence signal by excess unlabeled cAC253 [5]: 75%
- ex-vivo brain fluorescence signal relative to saline injection ([2]; 2 h post ip injection, 0.1 mmol in 200 μl saline): 2.8 fold
- further increase of brain fluorescence level at 6 h ([2]; 6 h post-ip injection, 0.01 mmol): 20%
- ability to penetrate the blood brain barrier [2]: penetrate the blood brain barrier
- bio-distribution in organs ([1]; 2 h after injecting 20 mg/kg): mainly observed in the eliminating organs such as kidneys, liver and in the injection sites (intestine)
- logP ([6]; 1-octanol/water shake flask, read-out: log P): -1.05
- Partition coefficient ([6]; Table 2, 1-octanol/PBS shake flask): 1.22

Next, values leading:

- clearance from the brain at 6 h ([2]; mouse, in vivo, ip): rapid clearance from the brain
Compound: CC[C@H](C)[C@H](NC(=O)[C@H](C)NC(=O)[C@@H](N)Cc1c[nH]cn1)C(=O)N[C@@H](Cc1ccc(O)cc1)C(=O)N1CCC[C@H]1C(=O)N[C@@H](CCCNC(=N)N)C(=O)N[C@@H](Cc1c[nH]cn1)C(N)=O [T7, HAIYPRH, reference compound]

- binding to AMY1 cells on peptide array (fluorescence) (AMY1): AMY1 specific peptide
Compound: RLQTYPRTNTGS (RLQTYPRTNTGS-NH2) [R10]
